Source: US8722578B2, “Spiroheterocyclic pyrrolidinedione herbicidal compositions” (Syngenta Participations AG, priority 2008, dated 2014)

What was measured:
Setaria faberi (SETFA) [1] = experiment: Example B pre-emergence herbicidal activity, glasshouse pot test; type: in vivo; conditions: 312 h, first table (headed Post-Emergence, taken as pre-emergence), evaluated after 13 days, read-out: SETFA activity (100=total damage to plant; 0=no damage to plant); for pest or weed control at 250 g/ha: rate 250 g/ha
Method: (§1) Seeds of a variety of test species are sown in standard soil in pots. After cultivation for one day (pre-emergence) or after 8 days cultivation (post-emergence) under controlled conditions in a glasshouse (at 24/16° C., day/night; 14 hours light; 65% humidity), the plants are sprayed with an aqueous spray solution derived from the formulation of the technical active ingredient in acetone/water (50:50) solution containing 0.5% Tween 20 (polyoxyethelyene sorbitan monolaurate, CAS RN 9005-64-5). The test plants are then grown in a glasshouse under controlled conditions in a glasshouse (at 24/16° C., day/night; 14 hours light; 65% humidity) and watered twice daily. After 13 days for pre and post-emergence, the test is evaluated (100=total damage to plant; 0=no damage to plant). Test Plants: Setaria faberi (SETFA), Alopecurus myosuroides (ALOMY), Echinochloa crus-galli (ECHCG), Avena fatua (AVEFA)

[2] = tested on: Echinochloa crus-galli (ECHCG); experiment: as above; type: in vivo; conditions: 312 h, first table (headed Post-Emergence, taken as pre-emergence), evaluated after 13 days, read-out: ECHCG activity (100=total damage to plant; 0=no damage to plant); for pest or weed control at 250 g/ha: rate 250 g/ha
Method: as §1

Avena fatua (AVEFA) [3] = experiment: as above; type: in vivo; conditions: 312 h, first table (headed Post-Emergence, taken as pre-emergence), evaluated after 13 days, read-out: AVEFA activity (100=total damage to plant; 0=no damage to plant); for pest or weed control at 250 g/ha: rate 250 g/ha
Method: as §1

[4] = tested on: Alopecurus myosuroides (ALOMY); experiment: as above; type: in vivo; conditions: 312 h, first table (headed Post-Emergence, taken as pre-emergence), evaluated after 13 days, read-out: ALOMY activity (100=total damage to plant; 0=no damage to plant); for pest or weed control at 250 g/ha: rate 250 g/ha
Method: as §1

Setaria faberi (SETFA) [5] = experiment: Example B post-emergence herbicidal activity, glasshouse pot test; type: in vivo; conditions: 312 h, evaluated after 13 days, read-out: SETFA post-emergence activity (100=total damage to plant; 0=no damage to plant); for pest or weed control at 250 g/ha: rate 250 g/ha
Method: as §1

[6] = tested on: Echinochloa crus-galli (ECHCG); experiment: as above; type: in vivo; conditions: 312 h, evaluated after 13 days, read-out: ECHCG post-emergence activity (100=total damage to plant; 0=no damage to plant); for pest or weed control at 250 g/ha: rate 250 g/ha
Method: as §1

Avena fatua (AVEFA) [7] = experiment: as above; type: in vivo; conditions: 312 h, evaluated after 13 days, read-out: AVEFA post-emergence activity (100=total damage to plant; 0=no damage to plant); for pest or weed control at 250 g/ha: rate 250 g/ha
Method: as §1

[8] = tested on: Alopecurus myosuroides (ALOMY); experiment: as above; type: in vivo; conditions: 312 h, evaluated after 13 days, read-out: ALOMY post-emergence activity (100=total damage to plant; 0=no damage to plant); for pest or weed control at 250 g/ha: rate 250 g/ha
Method: as §1

With `CCOC(=O)OC1=C(c2cc(C3CC3)c(C)cc2C)C(=O)NC12CCN(OC)CC2` [Compound P55] the melting point was 174 to 176 °C, the pest or weed control at 250 g/ha (Setaria faberi (SETFA) [1]) was 60% and the pest or weed control at 250 g/ha [2] was 40%. It also gave a pest or weed control at 250 g/ha (Avena fatua (AVEFA) [3]) of 0%, a pest or weed control at 250 g/ha [4] of 10% and a pest or weed control at 250 g/ha (Setaria faberi (SETFA) [5]) of 80%. The pest or weed control at 250 g/ha [6] was 70%, the pest or weed control at 250 g/ha (Avena fatua (AVEFA) [7]) was 60% and the pest or weed control at 250 g/ha [8] was 60%.

Molecule `CON1CCC2(CC1)NC(=O)C(c1ccc(Br)cc1C)=C2OC(=O)C(C)(C)C` [Compound P69] has a melting point of 239 to 240 °C, a pest or weed control at 250 g/ha (Setaria faberi (SETFA) [1]) of 100% and a pest or weed control at 250 g/ha [2] of 90%. It also gave a pest or weed control at 250 g/ha (Avena fatua (AVEFA) [3]) of 30%, a pest or weed control at 250 g/ha [4] of 40% and a pest or weed control at 250 g/ha (Setaria faberi (SETFA) [5]) of 90%. The pest or weed control at 250 g/ha [6] was 90%, the pest or weed control at 250 g/ha (Avena fatua (AVEFA) [7]) was 60% and the pest or weed control at 250 g/ha [8] was 90%.

Molecule `CON1CCC2(CC1)NC(=O)C(c1ccc(Cl)cc1Cl)C2=O` (stereo not drawn) [Compound T2] has a melting point of 221 to 223 °C, a pest or weed control at 1000 g/ha (Setaria faberi (SETFA) [1]; rate 1000 g/ha) of 30% and a pest or weed control at 1000 g/ha ([2]; rate 1000 g/ha) of 0%. For the same molecule, the pest or weed control at 1000 g/ha (Avena fatua (AVEFA) [3]; rate 1000 g/ha) was 40%, the pest or weed control at 1000 g/ha ([4]; rate 1000 g/ha) was 60% and the pest or weed control at 1000 g/ha (Setaria faberi (SETFA) [5]; rate 1000 g/ha) was 100%. For the same molecule, the pest or weed control at 1000 g/ha ([6]; rate 1000 g/ha) was 100%, the pest or weed control at 1000 g/ha (Avena fatua (AVEFA) [7]; rate 1000 g/ha) was 90% and the pest or weed control at 1000 g/ha ([8]; rate 1000 g/ha) was 100%.
